From PubChem BioAssay (NCI)
Values joined by “and” are separate entries in the source; they are usually repeats but may differ in a detail not shown here. Equal values may be shown once.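 Where inhibition never reached the appropriate level, the endpoint shown equals the highest concentration tested. Otherwise, values were interpolated linearly from a five-concentration, 48-hour dose response in 96-well plates. GI50 is the concentration that inhibits growth by half. TGI is the concentration that stops growth completely.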

Experiments:
Test in all cases: DTP human tumour cell line panel, 48 h
A498 renal = test system: A498 renal
COLO 205 colon = test system: COLO 205 colon
HOP-92 NSCLC = test system: HOP-92 NSCLC
HS 578T breast = test system: HS 578T breast
KM12 colon = test system: KM12 colon
NCI-H522 lung = test system: NCI-H522 lung
OVCAR-5 ovarian = test system: OVCAR-5 ovarian
SN12C renal = test system: SN12C renal
U251 CNS = test system: U251 CNS
UACC-257 melanoma = test system: UACC-257 melanoma

SMILES | GI50 (A498 renal) | TGI (A498 renal) | GI50 (COLO 205 colon) [µM] | TGI (COLO 205 colon) [µM] | GI50 (HOP-92 NSCLC) | TGI (HOP-92 NSCLC) | GI50 (HS 578T breast) | TGI (HS 578T breast) [µM] | GI50 (KM12 colon) | TGI (KM12 colon) [µM] | GI50 (NCI-H522 lung) | TGI (NCI-H522 lung) [µM] | GI50 (OVCAR-5 ovarian) | TGI (OVCAR-5 ovarian) [µM] | GI50 (SN12C renal) [µM] | TGI (SN12C renal) [µM] | GI50 (U251 CNS) | TGI (U251 CNS) [µM] | GI50 (UACC-257 melanoma) | TGI (UACC-257 melanoma)
COc1cc(N2CCN(C(C)C)CC2)ccc1Nc1nc(Nc2ccc(F)cc2C(N)=O)c2cc[nH]c2n1 | 0.165 µM | 3.65 µM | 0.0241 | 0.126 | 0.0148 µM | 0.687 µM | 2.67 µM | 9.8 | 3.14 µM | 7.97 | 2.8 µM | 6.42 | 0.245 µM | 6.27 | 2.54 | 5.9 | 2.72 µM | 6.13 | 0.194 µM | 5.6 µM
OCC1OC(N2CCN(C3OC(CO)C(O)C(O)C3O)CC2)C(O)C(O)C1O (stereo not given) |  | > 100 µM |  | > 100 |  | > 100 µM |  | > 100 |  | > 100 |  | > 100 |  | > 100 |  | > 100 |  | > 100 |  | > 100 µM
C=C1CC2(CC(c3ccccc3C)OC(c3ccccc3C)C2)OC1=O (stereo not given) |  | 21.6 µM |  | 3.68 |  | 3.18 µM |  | 5.43 |  | 6.06 |  | 3.23 |  | 26.5 |  | 4.42 |  | 25.9 |  | 3.66 µM
Cc1cc(S(=O)(=O)Nc2nc3ccccc3s2)c(SCc2ccccc2)cc1Cl | 12.9 µM | 28.6 µM | 30 | 68.4 | 11.8 µM | 43.6 µM | 20.2 µM | 62 | 18.8 µM | 61.9 | 31.5 µM | > 100 | 18.8 µM | 36.7 | 14.3 | 28.6 | 13.6 µM | 26.4 | 18.3 µM | 45.9 µM
NC(=O)C1CCCN1Cc1ccc2c(c1)OCO2 (stereo not given) |  | > 100 µM |  | > 100 |  | > 100 µM |  | > 100 |  | > 100 |  | > 100 |  | > 100 |  | > 100 |  | > 100 |  | > 100 µM
O=C(C#Cc1ccccc1)N1CCCCC1 |  | > 100 µM |  | > 100 |  | > 100 µM |  | > 100 |  | > 100 |  | > 100 |  | > 100 |  | > 100 |  | > 100 |  | > 100 µM
CN1CCN(CCCn2c3c(sc4ncccc43)c(=O)n3nnc(-c4ccccc4)c23)CC1 | 6.7 µM | 21.3 µM | 4.33 | 9.07 | 9.5 µM | 28.4 µM | 4.82 µM | 12.3 | 1.55 µM | 3.17 | 1.6 µM | 3.3 | 6.89 µM | 15.9 | 14.5 | 28.8 | 1.86 µM | 3.3 | 5.81 µM | 10.5 µM
Cc1cc(C(=O)NOCCO)c(Nc2ccc(I)cc2F)n(C)c1=O | 0.00323 µM and 0.0103 µM | 0.0286 µM and 0.0435 µM | < 0.01 | > 100 | 0.00585 µM and 0.0235 µM | 0.2 µM and 1.04 µM | > 10 µM and 37.2 µM | > 100 | 0.0263 µM and < 0.0161 µM | > 100 | > 10 µM and 13.7 µM | > 100 | 0.00163 µM and < 0.0168 µM | > 100 | 12.3 | > 100 | > 10 µM and 2.81 µM | > 100 | 0.00186 µM and < 0.01 µM | 0.0128 µM and < 0.0197 µM
COc1cc2cc(C(=O)Nc3ccccc3)c(N)nc2cc1OC | 4.7 µM | 30.9 µM | 34 | > 100 | 8.29 µM | 90.1 µM | 62.8 µM | > 100 | 46 µM | > 100 | 32.7 µM | > 100 | > 100 µM | > 100 | 53.8 | > 100 | 43.1 µM | > 100 | 39.4 µM | > 100 µM
COc1cc(/C=C/[N+](=O)[O-])cc(OC)c1 | 2.96 µM | 9.12 µM | 1.79 | 3.63 | 4.78 µM | 20.5 µM | 4.11 µM | 23.3 | 3.08 µM | 10.5 | 1.39 µM | 3.14 | 3.66 µM | 13.4 | 3.38 | 15.9 | 2.22 µM | 5.48 | 2.48 µM | 7.57 µM
COc1ccc(/C=C2\CCC(C)(CN(C)C)C2=O)cc1Br (stereo not given) |  | 50 µM |  | 34.4 |  | > 85.8 µM |  | 85.4 |  | 28.3 |  | 32.8 |  | > 100 |  | 31.8 |  | 45.1 |  | 36.6 µM
